The values below come from patent US20060030574A1, “Quinazoline derivatives useful for the treatment of peripheral arterial disease and as phosphodiesterase inhibitors” (Shire Holdings AG, priority 2004, published 2006).

For one series, the target named is Phosphodiesterase V (h) (Homo sapiens, UniProt O76074). Description: Phosphodiesterase V (h) inhibition. Format: biochemical. The source says: (§1) The profile of activity against a selection of phosphodiesterases (I-VI) was investigated. The methods used for the evaluation of the biological activity are all well known in the art. See for example, Weishaar et al; Biochem. Pharmacol., 35:787-800.

Series [1] has as its target Phosphodiesterase III (h) (Homo sapiens, UniProt Q14432). Description: Phosphodiesterase III (h) inhibition. Format: biochemical.
Another series addresses Phosphodiesterase II (h) (Homo sapiens, UniProt O00408). Description: Phosphodiesterase II (h) inhibition. Format: biochemical.
The target in the next series is Phosphodiesterase I.
Excerpt: as §1

A further series relates to Phosphodiesterase IV (h). Nature of the series: Phosphodiesterase IV (h) inhibition. It counts as biochemical, human. Conditions: 10 μM; percent inhibition of control activity, mean values, n = 2.
The target in another series is T1, Phosphodiesterase VI (Bos taurus, UniProt P11541+P23439).
T1 sequence (P11541 2-856): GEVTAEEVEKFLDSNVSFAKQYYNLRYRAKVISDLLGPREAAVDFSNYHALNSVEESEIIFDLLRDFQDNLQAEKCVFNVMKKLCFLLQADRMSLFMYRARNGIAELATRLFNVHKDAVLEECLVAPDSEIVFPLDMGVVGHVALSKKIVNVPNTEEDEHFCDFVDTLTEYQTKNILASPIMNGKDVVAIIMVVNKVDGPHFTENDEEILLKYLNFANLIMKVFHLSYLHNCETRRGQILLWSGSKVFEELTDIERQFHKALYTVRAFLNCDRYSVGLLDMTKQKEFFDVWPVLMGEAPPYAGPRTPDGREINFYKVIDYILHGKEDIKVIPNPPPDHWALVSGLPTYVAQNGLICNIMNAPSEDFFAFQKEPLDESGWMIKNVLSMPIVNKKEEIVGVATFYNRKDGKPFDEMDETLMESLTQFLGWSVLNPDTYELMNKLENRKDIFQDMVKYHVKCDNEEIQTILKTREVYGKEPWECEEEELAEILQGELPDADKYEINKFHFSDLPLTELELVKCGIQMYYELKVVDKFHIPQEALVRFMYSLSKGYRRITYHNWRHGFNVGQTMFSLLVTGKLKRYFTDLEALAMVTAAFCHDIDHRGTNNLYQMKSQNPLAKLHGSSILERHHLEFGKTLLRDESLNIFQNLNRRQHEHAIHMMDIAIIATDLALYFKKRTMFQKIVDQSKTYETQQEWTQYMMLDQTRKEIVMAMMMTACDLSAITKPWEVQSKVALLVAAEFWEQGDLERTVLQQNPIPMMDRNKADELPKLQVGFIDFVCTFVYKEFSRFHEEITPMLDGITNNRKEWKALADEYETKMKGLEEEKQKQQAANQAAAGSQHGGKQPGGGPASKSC
T1 sequence (P23439 2-850): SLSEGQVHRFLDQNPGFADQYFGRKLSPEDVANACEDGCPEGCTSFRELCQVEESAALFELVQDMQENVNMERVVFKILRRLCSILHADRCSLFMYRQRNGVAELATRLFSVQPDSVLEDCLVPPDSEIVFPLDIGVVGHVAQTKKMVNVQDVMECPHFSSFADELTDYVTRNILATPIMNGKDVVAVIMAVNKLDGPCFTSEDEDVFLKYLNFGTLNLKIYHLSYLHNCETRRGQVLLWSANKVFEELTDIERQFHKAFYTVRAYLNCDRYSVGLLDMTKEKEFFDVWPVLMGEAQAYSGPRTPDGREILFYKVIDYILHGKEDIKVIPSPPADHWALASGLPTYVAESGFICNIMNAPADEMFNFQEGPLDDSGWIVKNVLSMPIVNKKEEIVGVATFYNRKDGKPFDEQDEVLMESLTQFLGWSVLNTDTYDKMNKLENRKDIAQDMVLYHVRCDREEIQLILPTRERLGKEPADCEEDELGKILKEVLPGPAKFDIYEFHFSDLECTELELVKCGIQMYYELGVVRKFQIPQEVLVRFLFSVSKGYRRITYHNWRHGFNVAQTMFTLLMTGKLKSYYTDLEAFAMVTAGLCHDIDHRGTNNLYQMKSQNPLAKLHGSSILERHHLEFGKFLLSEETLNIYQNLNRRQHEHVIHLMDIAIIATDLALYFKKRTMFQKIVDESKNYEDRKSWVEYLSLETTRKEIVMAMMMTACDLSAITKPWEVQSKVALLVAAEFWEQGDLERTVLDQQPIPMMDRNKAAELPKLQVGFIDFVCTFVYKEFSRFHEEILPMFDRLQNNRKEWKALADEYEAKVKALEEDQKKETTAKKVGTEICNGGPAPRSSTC
T1 sequence (P04972 1-87 partner): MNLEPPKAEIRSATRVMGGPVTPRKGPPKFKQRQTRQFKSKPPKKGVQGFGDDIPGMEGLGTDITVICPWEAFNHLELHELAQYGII
Nature of the series: Phosphodiesterase VI inhibition. It counts as biochemical. The method, then:
The IC50 value against PDEVI was determined.

Setting [2] is: Hill coefficient of the reference compound.
Where [3] appears, read: Hill coefficient of the test compound.

Values joined by “and” are separate entries in the source; they are usually repeats but may differ in a detail not shown here. Identical values can stand only once. Like-named read-outs stand apart in the source and are kept apart here.

Chain of Phosphodiesterase II (h) (O00408 whole entry): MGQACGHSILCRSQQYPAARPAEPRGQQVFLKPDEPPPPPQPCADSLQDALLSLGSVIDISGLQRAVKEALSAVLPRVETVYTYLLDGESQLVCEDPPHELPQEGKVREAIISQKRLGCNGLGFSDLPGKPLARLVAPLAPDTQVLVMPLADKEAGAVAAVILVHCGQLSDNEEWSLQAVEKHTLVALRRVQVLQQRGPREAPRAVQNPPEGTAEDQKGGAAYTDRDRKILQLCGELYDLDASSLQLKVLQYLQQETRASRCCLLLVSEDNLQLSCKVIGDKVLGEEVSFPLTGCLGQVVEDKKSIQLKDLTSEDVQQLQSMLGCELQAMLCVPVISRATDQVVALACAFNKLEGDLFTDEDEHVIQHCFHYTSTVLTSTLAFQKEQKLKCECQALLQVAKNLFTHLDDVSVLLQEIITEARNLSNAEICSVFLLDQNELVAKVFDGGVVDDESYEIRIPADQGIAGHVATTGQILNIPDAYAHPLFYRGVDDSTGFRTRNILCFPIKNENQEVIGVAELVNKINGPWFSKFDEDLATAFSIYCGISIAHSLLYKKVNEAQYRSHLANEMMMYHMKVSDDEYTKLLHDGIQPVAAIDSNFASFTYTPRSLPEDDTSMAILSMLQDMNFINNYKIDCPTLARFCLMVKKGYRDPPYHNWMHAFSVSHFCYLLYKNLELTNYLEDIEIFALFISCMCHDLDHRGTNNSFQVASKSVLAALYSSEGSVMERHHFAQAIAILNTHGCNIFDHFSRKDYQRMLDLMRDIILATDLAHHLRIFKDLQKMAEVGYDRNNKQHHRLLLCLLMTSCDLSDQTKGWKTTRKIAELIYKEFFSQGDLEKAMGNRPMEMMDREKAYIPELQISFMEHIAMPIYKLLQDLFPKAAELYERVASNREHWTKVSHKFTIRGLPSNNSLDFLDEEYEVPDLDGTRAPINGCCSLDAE
Chain of Phosphodiesterase III (h) (Q14432 whole entry): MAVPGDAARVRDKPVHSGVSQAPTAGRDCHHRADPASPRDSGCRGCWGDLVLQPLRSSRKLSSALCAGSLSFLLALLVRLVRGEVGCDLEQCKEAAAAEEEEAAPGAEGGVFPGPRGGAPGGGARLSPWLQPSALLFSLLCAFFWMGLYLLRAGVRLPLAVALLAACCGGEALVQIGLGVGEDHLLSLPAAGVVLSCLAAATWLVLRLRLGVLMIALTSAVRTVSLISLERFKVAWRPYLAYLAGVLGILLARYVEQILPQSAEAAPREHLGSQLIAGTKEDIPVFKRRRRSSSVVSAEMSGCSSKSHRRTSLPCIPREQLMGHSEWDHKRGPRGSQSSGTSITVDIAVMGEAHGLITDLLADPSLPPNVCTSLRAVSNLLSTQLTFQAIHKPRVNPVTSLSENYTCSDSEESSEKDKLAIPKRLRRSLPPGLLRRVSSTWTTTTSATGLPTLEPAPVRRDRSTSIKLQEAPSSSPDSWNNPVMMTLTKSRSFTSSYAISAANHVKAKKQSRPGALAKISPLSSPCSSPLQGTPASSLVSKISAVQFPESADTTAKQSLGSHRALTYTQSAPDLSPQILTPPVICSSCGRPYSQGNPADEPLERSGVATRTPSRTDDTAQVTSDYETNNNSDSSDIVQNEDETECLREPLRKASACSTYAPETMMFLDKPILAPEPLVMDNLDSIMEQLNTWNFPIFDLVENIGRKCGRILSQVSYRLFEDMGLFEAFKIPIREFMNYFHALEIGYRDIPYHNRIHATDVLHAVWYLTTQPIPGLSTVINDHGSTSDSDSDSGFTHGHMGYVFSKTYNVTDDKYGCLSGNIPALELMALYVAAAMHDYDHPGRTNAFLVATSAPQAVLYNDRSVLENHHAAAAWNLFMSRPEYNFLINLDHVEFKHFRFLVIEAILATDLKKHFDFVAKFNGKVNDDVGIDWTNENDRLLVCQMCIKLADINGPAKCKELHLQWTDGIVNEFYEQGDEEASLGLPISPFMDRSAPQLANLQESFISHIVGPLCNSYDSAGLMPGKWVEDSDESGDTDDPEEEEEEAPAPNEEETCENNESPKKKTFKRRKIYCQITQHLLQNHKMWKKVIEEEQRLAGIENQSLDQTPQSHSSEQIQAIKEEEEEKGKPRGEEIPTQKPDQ

For the compound `OCCN(CCO)c1nc(N2CCCCC2)c2nc(N(CCO)CCO)nc(N3CCCCC3)c2n1` [dipyridamole, reference compound], the “Reference compounds (nH)” value on Phosphodiesterase V (h) (setting [2]) was “(1.3)”.
On to `O=C1NC2=NCc3c(ccc(Cl)c3Cl)N2C1O` (stereo not shown) [Compound#5, (6,7-Dichloro-1-hydroxy-3,5-dihydro-imidazo[1,2-a]quinazolin-2-one)], for which the “(nH)” value in series [1] (setting [3]) came to 0.4.
In the case of `CCCCCC[C@@H]([C@@H](C)O)n1cnc2c(N)ncnc21` (racemic) [EHNA], at Phosphodiesterase II (h) (setting [2]), the “Reference compounds (nH)” value was “(0.7)”. At Phosphodiesterase II (h) (control value for the reference compound, read-out: Reference compounds IC50), the IC50 was 2600 nM.
`COCc1nc2c([nH]1)c(=O)n(C)c(=O)n2CC(C)C` [8-methoxy-IBMX, reference compound]: the IC50 at Phosphodiesterase I (read-out: Reference compounds IC50, control value for the reference compound) came to 2410 nM.
Regarding `O=CC(=O)NC1=Nc2ccc(Cl)c(Cl)c2CN1` [Compound#1, N-(5,6-dichloro-3,4-dihydroquinazolin-2-yl)-2-oxoacetamide], the “% inhibition” value is on record as 26% in the series with Phosphodiesterase I (10 μM, percent inhibition of control activity, mean values, n = 2) and “— (The symbol - indicates an inhibition of less than 10%.)” in the series on Phosphodiesterase IV (h). Besides, the inhibition at 10 µM against Phosphodiesterase V (h) was 64%; in series [1], 97%; at Phosphodiesterase VI it was 89%; at Phosphodiesterase II (h) it was under 10%. Further, the IC50 in series [1] (average of two separate occasions, read-out: IC50 (average)) is 0.9 nM; in series [1] (test compound, assay 1 and assay 2 (two separate occasions), read-out: IC50), 0.69 nM and 1.1 nM. On Phosphodiesterase VI (setting [3]), the “(nH)” value was “(1.0)”.
For `Cc1[nH]c(=O)c(C#N)cc1-c1ccncc1` [milrinone, reference compound], the “Reference compounds (nH)” value in series [1] (setting [2]) is given as 0.6.
For `O=C1NC2=Nc3ccc(Cl)c(Cl)c3CN2C1O` (stereo not shown) [Compound #3, 6,7-dichloro-3-hydroxy-1,5-dihydro-imidazo[2,1-b]quinazolin-2-one], the melting point is 170 °C (dec.).
